Laboratory results from US20200368166A1, “Oral Formulations And Uses Thereof” (Eustralis Pharmaceuticals Limited (Trading As Pressura …, priority 2018, published 2020).
Where “and” joins values, the source holds several entries; their conditions need not be identical. Equal values may be shown once.

What was measured:
Assay type in all cases: physicochemical
[1] = Intrinsic dissolution rate (IDR) of compressed disc; settings: 200 mg disc, 100 rpm, 37° C.
Method: The IDR is determined by monitoring the drug release rate of a compressed disc of the pre-formulated drug. The IDR is independent of formulation effects and measures the intrinsic properties of the drug and salts as a function of dissolution media effects such as pH and ionic strength. A comparison of the IDR of the drug in water with that obtained in acid and alkali will provide a measure of the drug's ability to control its immediate microenvironment.
The IDR was determined by preparing a compressed disc containing 200 mg of Compound (Ia) 2HCl using slow compression. All metal surfaces were pre-lubricated using 4 drops of a 5% w/v solution of stearic acid in chloroform. The solvent was allowed to evaporate, the Compound (Ia) 2HCl added and the sample slowly compressed to 6 tonne. This pressure was maintained for 4 minutes to ensure adequate compression.
The discs were then rotated at 100 rpm, 25 mm from the bottom of a 1 litre flat bottomed dissolution vessel containing 1 litre of fluid maintained at 37° C. Manual sampling, with a sampling volume of 5 mL, was employed at 5, 10, 15, 30 and 60 minutes. The amount of drug released was then monitored, by HPLC. Compound (Ia) 2HCl was evaluated in 0.01N HCl (equivalent to gastric pH), phosphate buffer pH 6.8 (intestinal) and distilled water. Refer Table 19 for the percentage of Compound (Ia) 2HCl released.

[2] = Bulk and tap density, Carr's index
Method: Measurement of the bulk and tap density provides information on the flow properties and compressibility of the API. The bulk density is measured as the density of the material as it is “poured” or passively filled into a measuring vessel, whereas the tap density is a limiting density attained after “tapping in” the material. A Carr's index greater than 25 is considered to be an indication of poor flowability, and below 15, of good flowability.
Measurement of the bulk and tap density provides information on the flow and compressibility of the blend. Bulk and tap density and the subsequent Carr's index were determined on the Formulation 5 blend and the results are given in Table 13.

pH of the API = assay: pH of the API
Description: Compound (Ia) HCl (API) is an acidic compound with an approximate pH of 2.5. Compound of Formula (I), in particular compound (Ia) as shown below, is used in all examples, and in particular the 2HCl salt of compound (Ia) (Compound (Ia) 2HCl).

[3] = Particle size distribution (Malvern Mastersizer)
Method: The particle size distribution of compound (Ia) 2HCl (API) was determined using a Malvern Mastersizer. D(0.1) means that 10% of the sample is present as particles smaller than this size. D(0.5) means that 50% of the sample is present as particles smaller than this size. D(0.9) means that 90% of the sample is present as particles smaller than this size.

[4] = Solubility in dissolution media (sink conditions test); settings: 37° C.
Method: Selection of the dissolution medium is based on the solubility data and the dose range in order to ensure that sink conditions are met. The term ‘sink conditions’ is defined as the volume of medium at least greater than three times that required to form a saturated solution of drug substance.
The sink conditions test was performed as per USP 38 <1092> in the following dissolution medium: • 1. HCl 0.01 N, • 2. Buffer pH 6.8, • 3. Water.
Solubility determinations were performed on 75 mg of Compound (Ia) HCl dissolved in 250 mL of different media at 37° C. and stirred slightly. The λmax was determined by UV scan between 200-400 nm. Refer to Table 18 for the results.

[5] = API milled prior to GLP tablet manufacture (Table 16)

% Released (IDR) ([1]; 0.01N 2HCl, t = 0 mins): 0% | % Released (IDR) ([1]; 0.01N 2HCl, t = 5 mins): 80% and 70% | % Released (IDR) ([1]; 0.01N 2HCl, t = 10 mins): 100% and 97% | % Released (IDR) ([1]; 0.01N 2HCl, t = 15 mins): 101% and 98% | % Released (IDR) ([1]; 0.01N 2HCl, t = 30 mins): 102% and 99% | % Released (IDR) ([1]; 0.01N 2HCl, t = 60 mins): 101% and 98% | % Released (IDR) ([1]; Phosphate buffer pH 6.8, t = 0 mins): 0% | % Released (IDR) ([1]; Phosphate buffer pH 6.8, t = 5 mins): 68% and 60% | % Released (IDR) ([1]; Phosphate buffer pH 6.8, t = 10 mins): 85% and 81% | % Released (IDR) ([1]; Phosphate buffer pH 6.8, t = 15 mins): 72% and 83% | % Released (IDR) ([1]; Phosphate buffer pH 6.8, t = 30 mins): 73% and 77% | % Released (IDR) ([1]; Phosphate buffer pH 6.8, t = 60 mins): 59% and 60% | % Released (IDR) ([1]; Water, t = 0 mins): 0% | % Released (IDR) ([1]; Water, t = 5 mins): 84% and 71% | % Released (IDR) ([1]; Water, t = 10 mins): 101% and 98% | % Released (IDR) ([1]; Water, t = 15 mins): 101% and 100% | % Released (IDR) ([1]; Water, t = 30 mins): 100% and 102% | % Released (IDR) ([1]; Water, t = 60 mins): 100% | Bulk Density [2]: 0.63 g/mL | Carr's Index [2]: 24.29% | Tap Density [2]: 0.83 g/mL | approximate pH (pH of the API): ~2.5 | Particle Size D (0.1) ([3]; API before milling (Table 1)): 8.41 μm | Particle Size D (0.5) ([3]; API before milling (Table 1)): 76.13 μm | Particle Size D (0.9) ([3]; API before milling (Table 1)): 404.59 μm | Particle Size D (0.1) [3, 5]: 1.2 μm | Particle Size D (0.5) [3, 5]: 38.6 μm | Particle Size D (0.9) [3, 5]: 133.3 μm | Appearance ([4]; 75 mg in 250 mL 0.01N Hydrochloric Acid (pH 2.0), full cell: Clear, homogeneous, translucent to light yellow.): Clear, | Appearance ([4]; 75 mg in 250 mL Phosphate Buffer (pH 6.8), full cell: White, turbid, heterogeneous liquid.): White, turbid, | Time to Dissolve ([4]; 75 mg in 250 mL Purified Water): 21 s | Appearance ([4]; 75 mg in 250 mL Purified Water, full cell: Clear, homogeneous, translucent to light yellow.): Clear,
SMILES: Cc1ccccc1-c1cc(N2CCN(C)CC2)ncc1C(=O)N(C)Cc1cc(C(F)(F)F)cc(C(F)(F)F)c1 [Compound (Ia) 2HCl]
